US20240082222A1, “4-CHLORO-N-[2-[(4-CHLOROPHENYL)METHYL]-3-OXO-1,2,4-THIADIAZOL-5-YL]BENZAMIDE FOR USE IN MEDICINE” (Betagenon AB, priority 2021, published 2024)
Values joined by “and” are separate entries in the source; they are usually repeats but may differ in a detail not shown here. Identical values can stand only once. Counter-ions that a name gives are not always drawn. Like-named read-outs stand apart in the source and are kept apart here.

Test: Pharmacokinetic study in humans, sodium salt in enteric capsules, single and multiple dose (Example 2)
Format: in vivo, human
Conditions: for AUClast_D / Cmax D / AUC_TAU_D: dose-normalised; for AUC(0-t) / Cmax / Tmax / AUC / concentration at 24 h: human, plasma, oral; for Cmax: read-out: Cmax; for Tmax: read-out: Tmax; for concentration at 24 h: read-out: Clast
Experimental: An open, randomised, parallel-group study in healthy volunteers (hereafter referred to as subjects) was conducted to evaluate the exposure of 4-chloro-N-[2-[(4-chlorophenyl)methyl]-3-oxo-1,2,4-thiadiazol-5-yl]benzamide after single and multiple dose administration of 3 dose levels of the sodium salt of 4-chloro-N-[2-[(4-chlorophenyl)methyl]-3-oxo-1,2,4-thiadiazol-5-yl]benzamide and to evaluate combination with dapagliflozin at steady state.
For the study, Vcaps enteric capsules, size 0, were individually filled with 200 mg of milled test material together with 2 mg of sodium docusate, 125 mg of mannitol and 6.5 mg of sodium lauryl sulfate. […]
A screening visit (Visit 1) was performed within 28 days before randomisation and the start of IMP administration. The subjects were confined to the research clinic from the evening before Day 1 (Visit 2; Day—1). […]
Pre-dose safety assessments as well as pre- and post-dose PK assessments were performed. The subjects left the clinic after the last PK-sample on Day 1 and returned for a 24 h PK sample and dosing on Day 2 (Visit 3).
Subjects self-administered the test material at home from Day 3 to Day 15. A telephone visit to check compliance, AE status and use of concomitant medications will be performed on Day 8 (Visit 4).
The subjects returned to the clinic on Days 16 and 17 (Visits 5 and 6), for PK sampling and AE assessment. Visit 6 continued in the evening of Day 17, when the subjects were confined to the clinic until Day 18. On Day 18, pre- and post-dose PK and safety assessments were performed. The subjects left the clinic after the last PK sample on Day 18 and returned for a 24 h PK sample and dosing on Day 19 (Visit 7).
On Day 19 (Visit 7) subjects began co-administration of the test material and dapagliflozin (Forxiga), 10 mg per day for 7 days (Day 19 to Day 25). The subjects returned to the clinic on Day 25 (Visit 8) for final dosing, PK and safety assessments. A final end-of-study visit (Visit 9) for follow-up of safety assessments was conducted 28 days (+14 days) after Visit 8 or after early withdrawal.
Venous blood samples (approximately 5 mL) for the determination of plasma concentrations of 4-chloro-N-[2-[(4-chlorophenyl)methyl]-3-oxo-1,2,4-thiadiazol-5-yl]benzamide after administration of the test material were collected through an indwelling venous catheter on Days 1, 2, 16 to 19 and 25.
The blood samples were collected in pre-labelled Li-Heparin tubes. All the collected blood samples were be centrifuged at 1500 G for 10 minutes to separate plasma within 60 minutes from the sample is drawn. The separated plasma from each blood sample was be divided into 2 aliquots in pre-labelled polypropylene cryotubes (A and B samples, approximately 750 μL in each tube) and frozen at <−70° C. On Day 25, the plasma was divided in to 3 aliquots of at least 500 μL (A and B samples for the test material, and 1 sample for potential future analysis of dapagliflozin).
Samples for determination of plasma concentrations of 4-chloro-N[2-[(4-chlorophenyl)methyl]-3-oxo-1,2,4-thiadiazol-5-yl]benzamide were analysed by Lablytica Life Science AB, Uppsala, Sweden by means of a validated LS-MS/MS method.
The data of plasma concentration to respective time points for the analyte (4-chloro-N-[2-[(4-chlorophenyl)methyl]-3-oxo-1,2,4-thiadiazol-5-yl]benzamide) were used for the pharmacokinetic analysis. Pharmacokinetic analysis was performed using non-compartmental analysis (NCA) module of Phoenix WinNonlin 8.1 software to determine the following pharmacokinetic parameters.
After single dose administration of test material: • AUC0-24, Cmax, Tmax and dose proportionality (based on AUC0-24 and Cmax) (secondary endpoints). […]

[1] = 2000 mg Dose Group, capsule once daily, Day 18, Mean
[2] = 2000 mg Dose Group, capsule once daily, Day 18, Median
[3] = capsule once daily, Day 18, individual subjects, listed as test material
[4] = 200 mg, mean, dose group 200, capsule, Day 1
[5] = 200 mg, mean, dose group 200, capsule, Day 18
[6] = 400 mg, 400 mg Dose Group, capsules once daily, Day 18, Geometric Mean
[7] = 400 mg, 400 mg Dose Group, capsules once daily, Day 18, Mean
[8] = 400 mg, 400 mg Dose Group, capsules once daily, Day 18, Median
[9] = 400 mg, 400 mg Dose Group, capsules once daily, Day 18, individual subjects
[10] = 400 mg, mean, dose group 400, capsule, Day 1
[11] = 400 mg, mean, dose group 400, capsule, Day 18
[12] = 800 mg, 800 mg Dose Group, capsules once daily, Day 18, Geometric Mean
[13] = 800 mg, 800 mg Dose Group, capsules once daily, Day 18, Mean
[14] = 800 mg, 800 mg Dose Group, capsules once daily, Day 18, Median
[15] = 800 mg, 800 mg Dose Group, capsules once daily, Day 18, individual subjects
[16] = 800 mg, mean, dose group 800, capsule, Day 1
[17] = 800 mg, mean, dose group 800, capsule, Day 18
[18] = 2000 mg, 2000 mg Dose Group, capsule once daily, Day 18, Geometric Mean
[19] = 2000 mg, 2000 mg Dose Group, capsule once daily, Day 18, Mean
[20] = 2000 mg, 2000 mg Dose Group, capsule once daily, Day 18, Median

O=C(Nc1nc(=O)n(Cc2ccc(Cl)cc2)s1)c1ccc(Cl)cc1 [Compound of formula II, sodium salt of 4-chloro-N-[2-[(4-chlorophenyl)methyl]-3-oxo-1,2,4-thiadiazol-5-yl]benzamide]
AUClast_D [1]: 5.305 µg·h/mL/mg
Cmax D [1]: 0.2493 µg/mL/mg
AUC_TAU_D [2]: 4.752 µg·h/mL/mg
AUClast_D [2]: 4.888 µg·h/mL/mg
Cmax D [2]: 0.2403 µg/mL/mg
AUC_TAU_D (2000 mg Dose Group, capsule once daily, Day 18, individual subjects, listed as test material): 5.67 µg·h/mL/mg and 4.2 µg·h/mL/mg and 8.01 µg·h/mL/mg and 4.01 µg·h/mL/mg and 4.75 µg·h/mL/mg and 3.87 µg·h/mL/mg and 5.06 µg·h/mL/mg
AUClast_D [3]: 5.65 µg·h/mL/mg and 6.98 µg·h/mL/mg and 4.19 µg·h/mL/mg and 7.98 µg·h/mL/mg and 4 µg·h/mL/mg and 4.74 µg·h/mL/mg and 3.86 µg·h/mL/mg and 5.04 µg·h/mL/mg
Cmax D [3]: 0.261 µg/mL/mg and 0.31 µg/mL/mg and 0.21 µg/mL/mg and 0.36 µg/mL/mg and 0.201 µg/mL/mg and 0.231 µg/mL/mg and 0.173 µg/mL/mg and 0.25 µg/mL/mg
AUC(0-t) [4]: 87.4 µg·h/mL
Cmax [4]: 7.19 µg/mL
Tmax [4]: 15 h
AUC(0-t) [5]: 1060 µg·h/mL
Cmax [5]: 49.9 µg/mL
Tmax [5]: 8.03 h
Cmax (200 mg, repeated dosing, study of Example 2): ~50 µg/mL
AUC [6]: 1500 µg·h/mL
AUC(0-t) [6]: 1520 µg·h/mL
Cmax [6]: 69.6 µg/mL
Tmax [6]: 4.27 h
AUC [7]: 1530 µg·h/mL
AUC(0-t) [7]: 1540 µg·h/mL
Cmax [7]: 70.8 µg/mL
Tmax [7]: 8.31 h
AUC [8]: 1400 µg·h/mL
AUC(0-t) [8]: 1480 µg·h/mL
Cmax [8]: 66.1 µg/mL
Tmax [8]: 5 h
AUC [9]: 1210 µg·h/mL
AUC(0-t) [9]: 1210 µg·h/mL
Cmax [9]: 56.2 µg/mL
AUC(0-t) [10]: 158 µg·h/mL
Cmax [10]: 10.6 µg/mL
Tmax [10]: 15.4 h
AUC(0-t) [11]: 1540 µg·h/mL
Cmax [11]: 70.8 µg/mL
Tmax [11]: 8.31 h
AUC [12]: 2530 µg·h/mL
AUC(0-t) [12]: 2590 µg·h/mL
concentration at 24 h [12]: 108 µg/mL
Cmax [12]: 118 µg/mL
AUC [13]: 2560 µg·h/mL
AUC(0-t) [13]: 2620 µg·h/mL
concentration at 24 h [13]: 110 µg/mL
Cmax [13]: 118 µg/mL
Tmax [13]: 11.5 h
AUC [14]: 2730 µg·h/mL
AUC(0-t) [14]: 2670 µg·h/mL
concentration at 24 h [14]: 115 µg/mL
Cmax [14]: 122 µg/mL
Tmax [14]: 9.99 h
AUC [15]: 1810 µg·h/mL
AUC(0-t) [15]: 1800 µg·h/mL
concentration at 24 h [15]: 73.7 µg/mL
Cmax [15]: 87.3 µg/mL
AUC(0-t) [16]: 340 µg·h/mL
Cmax [16]: 22.8 µg/mL
Tmax [16]: 15.6 h
AUC(0-t) [17]: 2620 µg·h/mL
Cmax [17]: 118 µg/mL
Tmax [17]: 11.5 h
AUC [18]: 987 µg·h/mL
AUC(0-t) [18]: 1030 µg·h/mL
Cmax [18]: 48.6 µg/mL
AUC [19]: 1020 µg·h/mL
AUC(0-t) [19]: 1060 µg·h/mL
concentration at 24 h [19]: 44 µg/mL
Cmax [19]: 49.9 µg/mL
Tmax [19]: 8.03 h
AUC [20]: 950 µg·h/mL
AUC(0-t) [20]: 978 µg·h/mL
Cmax [20]: 48.1 µg/mL
Tmax [20]: 6.5 h
peak blood plasma concentration (repeated dosing of 200 mg in the form of a capsule): ≥ 50 µg/mL
blood plasma concentration versus same amount of free base form (repeated dosing, 200 to 1000 mg/day): approximately five-fold higher
